Results reported in patent US6916471B2, “Red blood cells loaded with S-nitrosothiol and uses therefor” (Duke University, priority 1995, dated 2005).

Columns and labels:
[1] = SNO-Hb decomposition and transnitrosation with glutathione; type: biochemical
Protocol: The decomposition of SNO-Hb(FeII) is further accelerated by the presence of excess glutathione. Within the dead time of our measurements (˜15 sec) a major fraction of SNO-Hb(FeII) was converted to GSNO.
Hbs in PBS (0.5 mM EDTA, pH 7.4) were incubated in air (oxy) or in a tonometer previously evacuated of O2 (deoxy). SNO-Hb(FeII)O2 decomposition was determined by the method of Saville (Saville, B., Analyst, 83:670-672 (1958)). Spontaneous decomposition of SNO-Hb(FeII) was followed spectrophotometrically by formation of Hb(FeII)NO. […] Rates of NO group transfer were too rapid to measure accurately by the standard methods used in this study.
Data are presented as the amount of GSNO formed relative to the starting SNO-Hb concentration.
Thiol/SNO-Hb exchange, forming GSNO, was verified chemically (Stamler, J. S., et al., Proc. Natl Acad. Sci. USA 89:444-448 (1992)) following trichloroacetic acid precipitation (n=5).

[2] = system: rabbit thoracic aorta rings; test: Oxygen-dependent rabbit aortic ring bioassay of Hb, SNO-Hb, GSNO and SNO-RBCs
[3] = system: Sprague-Dawley rats; test: Local cerebral blood flow by H2-sensitive microelectrodes; type: in vivo, rat; conditions: for local cerebral blood flow: 1 μmol/kg infused over 3 minutes
Protocol: Adult male Sprague-Dawley rats (290-350 g) were anesthetized with sodium pentobarbital (50 mg/kg IP), intubated and ventilated with a small animal respirator (Edco Scientific Inc., Chapel Hill, N.C.) at a rate and tidal volume to maintain normal values of PaCO2 (35-45 mm Hg; PaCO2=systemic arterial blood carbon dioxide tension). The femoral vein and artery were cannulated for infusion of drugs and for continuous monitoring of systemic blood pressure, respectively. Aliquots of arterial blood (200 μl) were drawn periodically to measure blood gas tensions and pH (Instrumentation Laboratory Co., model 1304 blood gas/pH analyzer). The blood was replaced intravenously with three volumes of normal saline. The inspired O2 concentration was varied using premixed gases balanced with nitrogen. The tissue PO2 was measured continuously with polarographic platinum microelectrodes (50 μm O.D. coated with hydrophobic gas permeable Nafion) implanted stereotaxically in both the right and left hippocampus (AP−3.4 mm, ML+2.2 mm), caudate putamen nucleus and substantia nigra (see coordinates below) (Young, W., Stroke, 11:552-564 (1980); Heiss, W. D. and Traupett, H., Stroke, 12:161-167 (1981); Dewhirst, M. W. et al., Cancer Res., 54:3333-3336 (1994); Kerger, H. et al., Am. J. Physiol., 268:H802-H810 (1995)). The PO2 electrodes were polarized to −0.65V against a distant Ag/AgCl reference located on the tail and the current flow was measured using a low-impedance nA-meter. Regional arterial PO2 was adjusted by changing the inspired O2 concentration and atmospheric pressure.
Polarographic hydrogen (H2)-sensitive microelectrodes were implanted stereotaxically in the substantia nigra (AP −5.3 mm, ML −2.4 mm to the bregma, depth 3.2 mm), caudate putamen nucleus (CPN) (AP +0.8 mm, ML −2.5 mm, depth 5.2 mm) and parietal cortex, for measurement of regional blood flow (Young, W., Stroke, 11:552-564 (1980); Heiss, W. D. and Traupett, H., Stroke, 12:161-167 (1981)). The microelectrodes were made from platinum wire and insulated with epoxy, with the exception of the tip (1 mm) which was coated with Nafion. For placement, the electrodes were mounted on a micromanipulator and the rat's head was immobilized in a Kopf stereotaxic frame. H2-sensitive electrodes were polarized to +400 mV against a distant reference electrode on the tail, and the polarographic current was measured using a low-impedance nA meter during and after the inhalation of hydrogen gas (2.5%) for 1 min. Both the hydrogen clearance curves and voltage for oxygen measurements were made using PC WINDAQ (software, DI-200 AC, Dataq Instruments, Inc., Akron, Ohio). Cerebral blood flow was calculated using the initial slope method (Young, W., Stroke, 11:552-564 (1980); Heiss, W. D. and Traupett, H., Stroke, 12:161-167 (1981)). Regional blood flow responses were monitored for 30 min. prior to and 30 min. following drug administration; hemoglobins were given at time 0.
The cerebrovascular effects of SNO-Hb were measured in adult male Sprague-Dawley rats using O2 and H2 (blood flow)-sensitive microelectrodes that were placed stereotaxically in several regions of the brain as for Example 11.
Comparative effects of SNO-Hb (●) and Hb (▪) (1 μmol/kg infused over 3 minutes) on local blood flow in substantia nigra (SN), caudate putamen nucleus, and parietal cortex are shown for three different conditions. […] Baseline blood flow was decreased by ˜10% under 100% O2+3 ATA as compared to 100% O2. n=7 for all data points. Values of tissue/microvascular PO2 ranged from 19-37 mm Hg in 21% O2; from 68-138 mm Hg in 100% O2; and from 365-538 mm Hg in 100%+3 ATA (Duke University Medical Center Hyperbaric Chambers).

[4] = system: Rats; test: Hemodynamics (blood pressure) at different O2 concentrations; type: in vivo, rat; conditions: 1 μmol/kg infused over 1 minute; 10 min. post-infusion
Protocol: Rats were anesthetized by intraperitoneal injection of pentobarbital, and the femoral arteries and veins accessed by local cutdown. The artery was then cannulated and the blood pressure monitored continuously using a P23 XL pressure transducer (Viggo Spectramed, Oxnard, Calif.) attached to a Gould recorder. The femoral vein was used for infusion of drugs and red blood cells containing SNO-Hb (1 ml over 1 min.) and an IBM PC (WINDAQ 200, Dataq Instruments, Inc.; Akron, Ohio) was used for data acquisition.
Drugs were infused through the femoral vein at 1 μmol/kg infused over 1 minute after blood pressure had stabilized (approximately 30 min). Measurements shown (FIG. 11A) were taken at 10 min. post-infusion of drug. […] P<0.05 vs. SNO-Hb; *P<0.05, **P<0.01) vs. baseline blood pressure. n=5-6 for each drug.
The hypotensive effects of SNO-RBCs were potentiated by pre-administration of the NO synthase inhibitor N^G-monomethyl-L-arginine (L-NMMA; 50 mg/kg). n=8 for each data point. Curves different by ANOVA (P<0.01), *P<0.05 vs. L-NMMA. The amount of hemolysis in these experiments was trivial. Infusion of the hemolysate had no effect on blood pressure.

[5] = system: vascular ring; test: Vessel ring bioassay of SNO-Hb preparations, with or without glutathione
From the text: Arterial red blood cells contain two physiologically important forms of hemoglobin: Hb(FeII)O2 and Hb(FeIII) (Antonini et al. (1971)). […] Such findings raise the possibility of functional consequences, perhaps influenced by the redox state of heme and its occupation by ligand.
Details of the vessel ring bioassay have been published (Stamler, J. S., et al., Proc. Natl. Acad. Sci. USA 89:444-448 (1992)). SNO-Hb(FeII)O2 preparations were synthesized with 10-fold excess S-nitrosocysteine (CYSNO) over Hb(FeII)O2 protein (2% borate, 0.5 mM EDTA, ˜15 min incubation), after which desalting was performed across Sephadex G-25 columns. CYSNO was synthesized in 0.5 N HCl, 0.5 mM EDTA and then neutralized (1:1) in 1 M phosphate buffer containing 0.5 mM EDTA. […] The latter was synthesized by treatment of Hb(FeII)O2 with excess ferricyanide, followed by desalting across G-25 columns. SNO-Hb concentrations were verified spectroscopically and the S-nitrosothiol content was determined by the method of Saville (Stamler, J. S., et al., Proc. Nat. Acad. Sci. USA 89:444-448 (1992)). The S-NO/tetramer stoichiometry for both SNO-Hb preparations was ˜2. Oxidation of the heme was undetectable by uv-spectrophotometric methods.

[6] = system: Sprague-Dawley rat; test: Mean arterial pressure after femoral vein bolus of cell-free Hb and SNO-Hbs; type: in vivo
From the text: Systemic administration of cell-free Hb results in hypertensive responses which have been attributed to NO scavenging by the heme (Vogel, W. M., et al., Am. J. Physiol. 251:H413-H420 (1986); Olsen, S. B., et al., Circulation 93:329-332 (1996)). To determine if SNO-Hb is free of this adverse affect, and to explore if in vitro mechanisms of NO release extend to the in vivo circumstance, we compared responses to Hb and SNO-Hb infused as a bolus into the femoral vein of anesthetized rats. […] Thus, the profiles of these compounds in vivo closely resemble those seen in vitro (FIG. 4A). […] These changes in mean blood pressure of ˜10% are on the order of those that differentiate normotension from hypertension in man, and in the therapeutic range of some antihypertensive regimens. […] The bioactivity of SNO-Hb in blood, where S—NO/heme stoichiometries approach 1:50,000, is a dramatic illustration of the resistence of this NO-related activity to Hb(Fe) inactivation.
Administration of 2-200 nmol/kg Hb(FeII)O2 (as a bolus) into the femoral vein of a Sprague-Dawley rat is shown to increase mean arterial pressure in a dose-dependent manner. At 200 nmol/kg, mean arterial pressure increased by 25 mm Hg (20±3 mm Hg; n=4; P<0.05). Elevations in blood pressure reversed within 10-15 min. SNO-Hb(FeII)O2 infusions (over the same dose range) are shown to ameliorate Hb(FeII)O2-induced hypertension without causing overt changes in blood pressure. […] A fall in blood pressure was also seen with injection of erythrocytes containing SNO-Hb.
Rats were anesthetized by intraperitoneal injection of pentobarbital and the femoral arteries and veins accessed by local cut down. The artery was then cannulated and the blood pressure monitored continuously using a Viggo Spectramed pressure transducer attached to a Gould recorder. An IBM PC (DATA Q Codas) was used for data acquisition.

[7] = system: rat red blood cells; test: S-nitrosylation of intraerythrocytic Hb (loading of red blood cells); type: cell-based; conditions: oxygenated rat red blood cells
Protocol: Given that Hb is largely contained within red blood cells, potential mechanisms by which S-nitrosylation of intracellular protein might occur were explored. […] Rapid oxidation of Hb was not observed under these conditions. […] Thus, erythrocyte access of RSNOs is thiol group specific.
Incubation of rat erythrocytes with S-nitrosocysteine (equimolar to heme (5 mM); phosphate buffer pH 7.4, 25° C.) leads to rapid formation of intracellular SNO-Hb(FeII)O2. […] By 60 min, 3 of the 4 available SH groups of Hb are S-nitrosylated (note that rat Hb contains 4 reactive SH groups). […] Spectrum A is that of SNO-Hb isolated from erythrocytes following G-25 chromatography. Treatment of A with dithionite results in reduction of the S—NO moiety, liberating free NO which is autocaptured by deoxy Hb, forming Hb(FeII)NO (note that dithionite simultaneously deoxygenates Hb) (spectrum C). […] The spectrum of Hb(FeII)NO containing 4 NO's per tetramer is shown for comparison (inset, spectrum B).
At shown intervals, red blood cells were pelleted rapidly by centrifugation, washed three times, lysed in deionized water at 4° C., and the cytosolic fraction subjected to rapid desalting across G-25 columns. Intracellular SNO-Hb was measured by the method of Saville (Gaston, B., et al., (1992); Stamler, J. S., et al., Proc. Natl. Acad. Sci. USA, 89:444-448 (1992)), and confirmed spectroscopically (inset of FIG. 3A) as described above.

## SNO-Hb(FeII): S-nitrosohemoglobin in the deoxy state
[1]; deoxy versus oxy state, PBS pH 7.4
  rate of RSNO decomposition (and transfer): much faster in the deoxy conformation
[2]; <1% O2 (˜6 torr)
  effect on vessel tone in T-structure: modest effect on baseline tone

## S-nitrosohemoglobin [SNO-Hb]
[2]; 1 μM, 6-7 torr
  effect on tone of rings contracted with phenylephrine under hypoxia: caused relaxations
[2]; 10 μM glutathione, greatest at <1% O2
  effect of glutathione on vasorelaxant response: potentiates the vasorelaxant response
[2]; 95% O2
  concentration-effect responses in R-structure: virtually identical to those of native Hb
[3]; 21% O2
  local cerebral blood flow: improved blood flow in all three regions of the brain tested
[3]; 100% O2
  local cerebral blood flow: significantly attenuated
[3]; 100% O2+3 ATA
  local cerebral blood flow: tended to decrease cerebral flow to similar extents
[4]
  change in blood pressure: significantly less of an increase in blood pressure than Hb

## SNO-Hb(FeIII): S-nitrosohemoglobin with heme oxidized to FeIII
[5]; glutathione 100 μM in bioassay chambers
  effect of added glutathione on the dose-response: potentiates the dose-response
[5]; no glutathione
  activity in vascular ring bioassay: vasodilator
[1]; SNO-Hb 100 μM, glutathione 10 mM, versus SNO-Hb(FeII)O2
  rate of NO group transfer to glutathione: more rapid
[6]; after 200 nmol/kg (highest dose)
  mean arterial pressure, post: 74±6 mm Hg
[6]; after hypotensive response
  time for blood pressure to normalize: 10 min
[6]; before 200 nmol/kg
  mean arterial pressure, pre: 108±4 mm Hg
[6]; bolus, femoral vein, anesthetized rat
  blood pressure response: elicited hypotensive responses

## N[C@@H](CCC(=O)N[C@@H](CSN=O)C(=O)NCC(=O)O)C(=O)O [S-nitrosoglutathione]
[7]
  formation of intraerythrocytic SNO-Hb: not
[2]; 95%, 21%, <1% O2
  O2 dependence of vasorelaxant effects: largely independent of PO2
[3]; 100% O2 and 100% O2+3 ATA
  brain perfusion: increased brain perfusion
[4]
  change in blood pressure: decreased blood pressure
